Test results taken from US20020132266A1, “Method for modifying and identifying functional sites in proteins” (priority 1998, published 2002).
{Fluorescein} = fluorescein label

Target: T1, human α-Thrombin (Homo sapiens, UniProt P00734)
T1 construct: the light chain and the heavy chain were separated by reverse phase chromatography; gift from Prof; Bode, MPI Martinsried
Assay: CALI experiment: serine-protease activity of thrombin measured with Chromozym TH after laser irradiation
Format: biochemical
Details: 0.38 μM thrombin, 0.76 μM aptamer (1:2); argon ion laser 496 nm, 800 mW, 30 seconds per well; percentage of thrombin activity in a non-irradiated control; Chromozym TH substrate
Method: Complexes were formed by mixing 7.6 μM thrombin with the fluorescein-labeled aptamer (1:2 molar ratio) in 50 mM Tris buffer, pH 8.3, 100 mM NaCl, and an incubation time of 30 min on ice in the dark.
Control samples were prepared as described above, either omitting the aptamer, using a non-labeled aptamer or an equal concentration of FITC. Subsequently, the solutions were diluted 20-fold with the same buffer. The final concentrations were 0.38 μM thrombin and 0.76 μM aptamer. The samples were pipetted in 100 μl aliquots into wells of a flat bottom 96-well microtiter plate (Nunc A/S, Roskilde, DK), typically 1.2 ml or 12 wells total per sample. The plate was blocked with 1% BSA in PBS for 1 hour and then washed extensively prior to use.
The serine-protease activity of thrombin was measured using Chromozym TH (Roche Diagnostics GmbH, Mannheim, Germany) as substrate. […] The absorbance increase at 405 nm, due to the cleavage of Chromozym TH into a residual peptide and free […] by thrombin, was followed with the time. The absorbance difference per minute, calculated in the linear range, was used to calculate the thrombin activity in U/ml. […]

Flu-THR15: fluorescein-labeled, thrombin-specific aptamer, 15-mer oligonucleotide GGTTGGTGTGGTTGG with the fluorescein moiety linked to its 5′ end (DNA, 5' {Fluorescein}, backbone not given here)
thrombin inactivation upon irradiation (CALI effect): 55%
